Results reported in PubChem BioAssay (NCI).
Several values for one entry are separate records, joined by “and”; a condition that tells them apart may be missing. Equal entries are not always repeated.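 Step 1: Grow cells in 96-well plates. Step 2: Expose to compound for 48 hours at 5 concentrations. Step 3: Interpolate endpoints linearly; if unreached, use highest concentration. Here, GI50 denotes the concentration required for 50% inhibition of growth. The concentration for full growth arrest is given as TGI.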

How the values were obtained:
Test in all cases: NCI anticancer screen, dose series, 48 h
[1] = system: 786-0 renal
[2] = system: A549 NSCLC
[3] = system: CCRF-CEM leukemia
[4] = system: SF-295 CNS
[5] = system: HCT-116 colon
[6] = system: CAKI-1 renal
[7] = system: HT29 colon
[8] = system: BT-549 breast
[9] = system: OVCAR-4 ovarian
[10] = system: SR leukemia

In the case of C[C@H](NC(=O)[C@@H](C)N)[C@H](Oc1ccc2c(cnn2-c2ccc(F)cc2)c1)c1ccc2c(c1)OCCO2, the GI50 [1] was 3.77 µM, the TGI [1] was 14.3 µM and the GI50 [2] was 1.36 µM. It also gave a TGI [2] of 12.6 µM, a GI50 [3] of 1.49 µM and a TGI [3] of 4.6 µM. For the same molecule, the GI50 [4] was 1.95 µM, the TGI [4] was 3.9 µM and the GI50 [5] was 1.87 µM. For the same molecule, the TGI [5] was 3.73 µM, the GI50 [6] was 1.09 µM and the TGI [6] was 4.79 µM. For the same molecule, the GI50 [7] was 1.87 µM, the TGI [7] was 3.84 µM and the GI50 [8] was 1.82 µM. It also gave a TGI [8] of 15 µM, a GI50 [9] of 2.84 µM and a TGI [9] of 12.1 µM. It also gave a GI50 [10] of 2.03 µM and a TGI [10] of 5.24 µM.
ClCc1cccc2c(CCl)cccc12 showed a GI50 [1] of 3.93 µM, a TGI [1] of 18.9 µM and a GI50 [2] of 8.77 µM. For the same molecule, the TGI [2] was 24 µM, the GI50 [3] was 2.31 µM and the TGI [3] was greater than 100 µM. It also gave a GI50 [4] of 5.59 µM, a TGI [4] of 19.5 µM and a GI50 [5] of 4.18 µM. It also gave a TGI [5] of 19.1 µM, a GI50 [6] of 1.48 µM and a TGI [6] of 4.28 µM. It also gave a GI50 [7] of 2.88 µM, a TGI [7] of 11.2 µM and a GI50 [8] of 3.99 µM. It also gave a TGI [8] of 16.7 µM, a GI50 [9] of 12 µM and a TGI [9] of 75.7 µM. The GI50 [10] was 0.901 µM and the TGI [10] was greater than 100 µM.
CCN(Cc1ccc(Cl)cc1)c1ccc(CO)c(Cl)c1 showed a GI50 [1] of 2.19 µM, a TGI [1] of 13.3 µM and a GI50 [2] of 1.35 µM. For the same molecule, the TGI [2] was 14.3 µM, the GI50 [3] was 9.96 µM and the TGI [3] was 45.6 µM. For the same molecule, the GI50 [4] was 0.997 µM, the TGI [4] was 12.1 µM and the GI50 [5] was 0.129 µM. For the same molecule, the TGI [5] was 3.77 µM, the GI50 [6] was 0.563 µM and the TGI [6] was 7.45 µM. The GI50 [7] was 3.12 µM, the TGI [7] was 13.5 µM and the GI50 [8] was 5.02 µM. The TGI [8] was 19.4 µM, the GI50 [9] was 0.543 µM and the TGI [9] was 11.3 µM. The GI50 [10] was 17.7 µM and the TGI [10] was 51.5 µM.
Work on C[C@]12CC[C@@H]3c4ccc(OC(=O)N(CCCl)CCCl)cc4CC[C@H]3[C@@H]1CC[C@@H]2O yielded a GI50 [1] of 2.83 µM, a TGI [1] of 13.7 µM and a GI50 [2] of 2.46 µM. The GI50 [3] was 1.21 µM, the TGI [3] was 6.83 µM and 3.45 µM and the GI50 [4] was 0.819 µM. For the same molecule, the TGI [4] was 4.14 µM, the GI50 [5] was 1.6 µM and the TGI [5] was 10.8 µM. It also gave a GI50 [6] of 2.44 µM, a GI50 [7] of 2.41 µM and a GI50 [8] of 4.64 µM. It also gave a TGI [8] of 17.1 µM, a GI50 [9] of 4.36 µM and a TGI [9] of 39.5 µM. For the same molecule, the GI50 [10] was 0.135 µM and the TGI [10] was 1.42 µM.
O=C1C(Cl)=C(Nc2cccc(Cl)c2)C(=O)N1Cc1ccc(Cl)cc1 was tested, and the GI50 [1] was 0.186 µM, the TGI [1] was 5.48 µM and the GI50 [2] was 3.71 µM. For the same molecule, the TGI [2] was 21 µM, the GI50 [3] was 0.318 µM and the TGI [3] was greater than 19.8 µM. It also gave a GI50 [4] of 0.532 µM, a TGI [4] of 15.6 µM and a GI50 [5] of 0.442 µM. For the same molecule, the TGI [5] was 6.53 µM, the GI50 [6] was 0.919 µM and the TGI [6] was 13.9 µM. For the same molecule, the GI50 [7] was 0.758 µM, the TGI [7] was 31.3 µM and the GI50 [8] was 0.338 µM. The TGI [8] was 2.84 µM, the GI50 [9] was 4.68 µM and the TGI [9] was greater than 64.2 µM. For the same molecule, the GI50 [10] was 0.215 µM.
CCN1C(=O)N(CC)C2C1NN=c1s/c(=C\c3cccc(F)c3)c(=O)n12 (stereo not given) showed a GI50 [1] of 0.657 µM, a TGI [1] greater than 100 µM and a GI50 [2] of 0.282 µM. It also gave a TGI [2] greater than 100 µM, a GI50 [3] of 0.181 µM and a TGI [3] greater than 100 µM. For the same molecule, the GI50 [4] was 0.224 µM, the TGI [4] was greater than 100 µM and the GI50 [5] was 0.131 µM. It also gave a TGI [5] greater than 100 µM, a GI50 [6] of 0.0711 µM and a TGI [6] greater than 100 µM. It also gave a GI50 [7] of 0.0859 µM, a TGI [7] greater than 100 µM and a GI50 [8] of 0.209 µM. The GI50 [9] was 5.37 µM, the TGI [9] was greater than 100 µM and the GI50 [10] was 0.044 µM. The TGI [10] was greater than 100 µM.
N#Cc1ccc(OCc2nc(N)nc(N)c2-c2ccc(Cl)c(Cl)c2)cc1 was tested, and the GI50 [1] was 1.48 µM, the TGI [1] was greater than 100 µM and the GI50 [2] was 0.405 µM. It also gave a TGI [2] of 15.8 µM, a GI50 [3] of 2.67 µM and a TGI [3] greater than 100 µM. It also gave a GI50 [4] of 0.725 µM, a TGI [4] greater than 100 µM and a GI50 [5] of 0.552 µM. For the same molecule, the TGI [5] was greater than 100 µM, the GI50 [6] was 3.09 µM and the TGI [6] was greater than 100 µM. For the same molecule, the GI50 [7] was 0.592 µM, the TGI [7] was greater than 100 µM and the GI50 [8] was 9.98 µM. It also gave a TGI [8] greater than 100 µM, a GI50 [9] of 6.43 µM and a TGI [9] greater than 100 µM. It also gave a GI50 [10] of 4.03 µM and a TGI [10] of 66.2 µM.
For CCOc1cccc(/C=N/N=C2\C(=O)Nc3c(Cl)cc(Cl)cc32)c1O, the TGI [1] was greater than 100 µM, the TGI [2] was greater than 100 µM and the TGI [3] was greater than 100 µM. The TGI [4] was greater than 100 µM, the TGI [5] was greater than 100 µM and the TGI [6] was greater than 100 µM. For the same molecule, the TGI [7] was greater than 100 µM, the TGI [8] was greater than 100 µM and the TGI [9] was greater than 100 µM. The TGI [10] was greater than 100 µM.
C[C@@]1(C(=O)O)CCC[C@]2(C)C1CC[C@@]13CC(=O)[C@@](CO)(CC[C@]12O)C3 (stereo not given in full) gave a GI50 [1] greater than 100 µM, a TGI [1] greater than 100 µM and a GI50 [2] greater than 100 µM. For the same molecule, the TGI [2] was greater than 100 µM, the GI50 [3] was greater than 100 µM and the TGI [3] was greater than 100 µM. For the same molecule, the GI50 [4] was greater than 100 µM, the TGI [4] was greater than 100 µM and the GI50 [5] was greater than 100 µM. The TGI [5] was greater than 100 µM, the GI50 [6] was greater than 100 µM and the TGI [6] was greater than 100 µM. It also gave a GI50 [7] greater than 100 µM, a TGI [7] greater than 100 µM and a GI50 [8] greater than 100 µM. For the same molecule, the TGI [8] was greater than 100 µM, the GI50 [9] was greater than 100 µM and the TGI [9] was greater than 100 µM. For the same molecule, the GI50 [10] was greater than 100 µM and the TGI [10] was greater than 100 µM.
Clc1nc(Cl)c2ncn(CC3(Cn4cnc5c(Cl)nc(Cl)nc54)COC3)c2n1 showed a GI50 [1] of 0.762 µM, a TGI [1] of 2.37 µM and a GI50 [2] of 0.273 µM. The TGI [2] was 1.19 µM, the GI50 [3] was 0.221 µM and the TGI [3] was 0.471 µM. The GI50 [4] was 1.56 µM, the TGI [4] was 3.1 µM and the GI50 [5] was 0.182 µM. For the same molecule, the TGI [5] was 0.35 µM, the GI50 [6] was 0.195 µM and the TGI [6] was 0.496 µM. It also gave a GI50 [7] of 0.226 µM, a TGI [7] greater than 100 µM and a GI50 [8] of 0.501 µM. The TGI [8] was 1.69 µM, the GI50 [9] was 0.276 µM and the TGI [9] was 0.763 µM. The GI50 [10] was 0.407 µM and the TGI [10] was greater than 100 µM.
O=C(O)CN(CC(=O)O)Cc1cc(C#Cc2ccc(C#Cc3ccccc3)cc2)cc(CN(CC(=O)O)CC(=O)O)n1 was tested, and the TGI [1] was 47.1 µM, the TGI [2] was greater than 100 µM and the TGI [3] was greater than 64.9 µM. It also gave a TGI [4] greater than 88.9 µM, a TGI [5] of 39.9 µM and a TGI [6] of 61.9 µM. It also gave a TGI [7] greater than 100 µM, a TGI [8] of 66.6 µM and a TGI [9] of 56 µM. It also gave a TGI [10] greater than 62.5 µM.
COc1ncnc2c(-c3ccccc3)cn(COCc3ccccc3)c12 gave a GI50 [1] of 4.55 µM, a TGI [1] greater than 100 µM and a GI50 [2] of 3.3 µM. For the same molecule, the TGI [2] was 28.7 µM, the GI50 [3] was 3.58 µM and the TGI [3] was greater than 100 µM. The GI50 [4] was 2.82 µM, the TGI [4] was 15.4 µM and the GI50 [5] was 2.67 µM. The TGI [5] was 23 µM, the GI50 [6] was 3.02 µM and the TGI [6] was greater than 100 µM. The GI50 [7] was 3.49 µM, the TGI [7] was greater than 100 µM and the GI50 [8] was 2.57 µM. It also gave a TGI [8] of 7.6 µM, a GI50 [9] of 2.26 µM and a TGI [9] of 9.5 µM. It also gave a GI50 [10] of 2.79 µM and a TGI [10] of 43.2 µM.
Work on Oc1c(-c2nnc(-c3ccccc3Cl)o2)sc2nnc(-c3ccccc3)c(-c3ccccc3)c12 yielded a GI50 [1] of 7.22 µM, a TGI [1] greater than 100 µM and a GI50 [2] of 4.31 µM. For the same molecule, the TGI [2] was 61.5 µM, the GI50 [3] was 1.43 µM and the TGI [3] was greater than 100 µM. The GI50 [4] was 1.89 µM, the TGI [4] was 15.6 µM and the GI50 [5] was 2.92 µM. The TGI [5] was 11.4 µM, the GI50 [6] was 0.501 µM and the TGI [6] was 24.6 µM. The GI50 [7] was 4.06 µM, the TGI [7] was 20.8 µM and the GI50 [8] was 12.6 µM. For the same molecule, the TGI [8] was greater than 100 µM, the GI50 [9] was 4.49 µM and the TGI [9] was greater than 100 µM. The GI50 [10] was 3.96 µM and the TGI [10] was greater than 100 µM.
For COc1ccc(C(=S)N2CCN(c3cccc(C)c3)CC2)cc1OC, the GI50 [1] was 7.54 µM, the TGI [1] was greater than 100 µM and the GI50 [2] was 6.37 µM. For the same molecule, the TGI [2] was greater than 100 µM, the GI50 [3] was greater than 100 µM and the TGI [3] was greater than 100 µM. The GI50 [4] was 4.26 µM, the TGI [4] was 44.8 µM and the GI50 [5] was 3.47 µM. The TGI [5] was greater than 100 µM, the GI50 [6] was 3.21 µM and the TGI [6] was greater than 100 µM. The GI50 [7] was 3.3 µM, the TGI [7] was greater than 100 µM and the GI50 [8] was 6.31 µM. It also gave a TGI [8] greater than 100 µM, a GI50 [9] of 57.7 µM and a TGI [9] greater than 100 µM. It also gave a GI50 [10] of 1.53 µM and a TGI [10] greater than 100 µM.
